# Activity calls are given as the source filed them. The rule behind the calls is not given here.
# How the values were obtained:
# [1] = tested on: A549; experiment: Antiproliferative activity against human A549 cells assessed as reduction in cell viability incubated for 72 hrs by MTT assay; assay type: functional, cell-based; conditions: A549, 72 h
# [2] = tested on: HeLa; experiment: Antiproliferative activity against human HeLa cells assessed as reduction in cell viability incubated for 72 hrs by MTT assay; assay type: functional, cell-based
# [3] = tested on: MCF7; experiment: Antiproliferative activity against human MCF7 cells assessed as reduction in cell viability incubated for 72 hrs by MTT assay; assay type: functional, cell-based; conditions: MCF7, 72 h
# [4] = tested on: MDA-MB-231; experiment: Antiproliferative activity against human MDA-MB-231 cells assessed as reduction in cell viability incubated for 72 hrs by MTT assay; assay type: functional, cell-based; conditions: MDA-MB-231, 72 h
# [5] = tested on: HeLa; experiment: Antiproliferative activity against human HeLa cells assessed as reduction in number of colonies at 0.432 to 0.864 uM for 72 hrs with media renew every 2 days and measured upto 2 weeks by crystal violet staining based microscopic analysis; assay type: functional, cell-based; conditions: dose 0.432-0.864 µM, DDE = dose-dependent effect
# [6] = tested on: HeLa; experiment: Induction of cell cycle arrest in human HeLa cells assessed as accumulation at G2/M phase at 0.432 to 0.864 uM for 72 hrs by DAPI staining based fluorescence microscopy; assay type: functional; conditions: dose 0.432-0.864 µM, DDE = dose-dependent effect
# [7] = tested on: HeLa; experiment: Induction of apoptosis in human HeLa cells assessed as fold change as increase in necrotic cells at 0.432 to 0.864 uM for 72 hrs by Annexin-V/PI staining based fluorescence microscopy relative to control; assay type: functional; conditions: dose 0.432-0.864 µM
# [8] = tested on: HeLa; experiment: Induction of cell cycle arrest in human HeLa cells assessed as fold change as increase in accumulation at G2/M phase at 0.432 to 0.864 uM for 72 hrs by PI staining based flow cytometry relative to control; assay type: functional; conditions: dose 0.432-0.864 µM
# [9] = tested on: HeLa; experiment: Induction of apoptosis in human HeLa cells assessed as fold change as increase in apoptotic cells at 0.432 to 0.864 uM for 72 hrs by PI staining based flow cytometry relative to control; assay type: functional; conditions: dose 0.432-0.864 µM
# [10] = tested on: HeLa; experiment: Induction of cell cycle arrest in human HeLa cells assessed as increase in cyclin B1 expression at 0.432 to 0.864 uM for 72 hrs by Western blot analysis; assay type: functional, cell-based; conditions: dose 0.432-0.864 µM, DDE = dose-dependent effect
# [11] = tested on: HeLa; experiment: Induction of apoptosis in human HeLa cells assessed as increase in p53 protein expression at 0.432 to 0.864 uM for 72 hrs by Western blot analysis; assay type: functional, cell-based; conditions: dose 0.432-0.864 µM, DDE = dose-dependent effect
# [12] = tested on: HeLa; experiment: Induction of apoptosis in human HeLa cells assessed as increase in p21 protein expression at 0.432 to 0.864 uM for 72 hrs by Western blot analysis; assay type: functional, cell-based; conditions: dose 0.432-0.864 µM
# [13] = biological target: T1, Tubulin (Homo sapiens) (UniProt P68371+Q9H4B7+P0DPH7+P68366+Q13509+Q71U36+P04350+Q3ZCM7+P07437+P68363+Q9BQE3+Q6PEY2+Q13885+Q9BVA1+Q9BUF5); experiment: Induction of microtubule stabilization in human HeLa cells assessed as microtubule bundling at 0.5 to 1 uM for 24 hrs by DAPI staining based fluorescence microscopy; assay type: cell-based; conditions: dose 0.5-1 µM, DDE = dose-dependent effect
# [14] = biological target: T1, Tubulin (Homo sapiens); experiment: Induction of microtubule stabilization in human HeLa cells assessed as increase in alpha-tubulin level in cell pellet at 0.5 to 1 uM for 48 hrs by Western blot analysis; assay type: cell-based; conditions: dose 0.5-1 µM, DDE = dose-dependent effect
# [15] = biological target: T1, Tubulin (Homo sapiens); experiment: Induction of microtubule stabilization in human HeLa cells assessed as microtubule bundling at 0.5 uM for 24 hrs by DAPI staining based fluorescence microscopy; assay type: cell-based
# [16] = biological target: T1, Tubulin (Homo sapiens); experiment: Induction of microtubule stabilization in human HeLa cells assessed as increase in alpha-tubulin level in cell pellet at 0.5 uM for 48 hrs by Western blot analysis; assay type: cell-based; conditions: DDE = dose-dependent effect
structure (smiles),measurement,setting,value
Cc1cc(C)c(SC(=S)N2CCN(C(=O)OC(C)(C)C)CC2)c(C)c1,IC50,[1],1460 nM
Cc1ccc(SC(=S)N2CCN(C(=O)OC(C)(C)C)CC2)cc1,IC50,[1],2100 nM
Cc1ccccc1SC(=S)N1CCN(C(=O)OC(C)(C)C)CC1,IC50,[1],2270 nM
CC(C)(C)OC(=O)N1CCN(C(=S)Sc2ccccc2)CC1,IC50,[1],447 nM
same,IC50,[2],432 nM
same,IC50,[3],1750 nM
same,IC50,[4],615 nM
same,Activity,[5],Dde
same,Activity,[6],Dde
same,fold change (FC),[7],3
same,fold change (FC),[8],4
same,fold change (FC),[9],4
same,Activity,[10],Dde
same,Activity,[11],Dde
same,Activity,[12],Active
same,Activity,[13],Dde
same,Activity,[14],Dde
S=C(Sc1ccccc1)N1CCCCC1,IC50,[1],7930 nM
CC(C)(C)OC(=O)N1CCN(C(=S)Sc2ccc(Cl)cc2)CC1,IC50,[1],1070 nM
CCCCN(CCCC)C(=S)Sc1ccccc1,IC50,[1],9760 nM
CC(C)(C)OC(=O)N1CCN(C(=S)Sc2ccccc2Cl)CC1,IC50,[1],1560 nM
Cc1cccc(SC(=S)N2CCN(C(=O)OC(C)(C)C)CC2)c1,IC50,[1],914 nM
CC(C)(C)c1ccc(SC(=S)N2CCCCC2)cc1,IC50,[1],9130 nM
CC(C)(C)OC(=O)N1CCN(C(=S)Sc2cccc(Cl)c2)CC1,IC50,[1],634 nM
S=C(Sc1ccccc1)N1CCOCC1,IC50,[1],2520 nM
CC(=O)O[C@H]1C(=O)[C@@]2(C)[C@H]([C@H](OC(=O)c3ccccc3)[C@]3(O)C[C@H](OC(=O)[C@H](O)[C@@H](NC(=O)c4ccccc4)c4ccccc4)C(C)=C1C3(C)C)[C@]1(OC(C)=O)CO[C@@H]1C[C@@H]2O,Activity,[15],Active
same,Activity,[16],Dde
COc1ccc(SC(=S)N2CCN(C(=O)OC(C)(C)C)CC2)cc1,IC50,[1],712 nM
CC(C)(C)OC(=O)N1CCN(C(=S)Sc2ccc(C(C)(C)C)cc2)CC1,IC50,[1],769 nM
Cc1ccc(C)c(SC(=S)N2CCN(C(=O)OC(C)(C)C)CC2)c1,IC50,[1],539 nM
CC(C)(C)OC(=O)N1CCN(C(=S)Sc2ccc(Br)cc2)CC1,IC50,[1],1820 nM
CC(C)(C)OC(=O)N1CCN(C(=S)Sc2ccc(F)cc2)CC1,IC50,[1],1560 nM

# Reference: ChEMBL document CHEMBL5126599, “Development of S-aryl dithiocarbamate derived novel antiproliferative compound exhibiting tubulin bundling” (Bioorg Med Chem, 2022)
